Measurements as given in article PMC8377144, “Retro-enantio isomer of angiopep-2 assists nanoprobes across the blood-brain barrier for targeted magnetic resonance/fluorescence imaging of glioblastoma” (Signal Transduction and Targeted Therapy, 2021).

Tested on: in vitro BBB model (bEnd.3 cells cocultured with U87-MG cells)
Assay: NaFl permeability test of the in vitro BBB model (Transwell)
Assay type: in vitro ADME, mouse
Settings: bEnd.3 upper / U87-MG lower chamber, 3 µm polycarbonate, 0.33 cm^2, 200 µL NaFl 10 µg/mL upper, 900 µL PBS lower, 37 °C, sampling 30, 60, 90 min, microplate reader 485/535 nm
Method: Construction of the in vitro BBB model: U87-MG cells and bEnd.3 cells were initially cultured in high-glucose DMEM containing 10% FBS and 1% penicillin/streptomycin at 37 °C with 5% CO2. Moreover, a layer of a collagen solution was smeared on the inner side of the polycarbonate Transwell (3 µm mean pore size, 0.33 cm^2 surface area, Millipore, USA) and dried naturally on a clean bench for 30 min. Then, bEnd.3 cells were inoculated into the upper chamber of 24-well transwells units at a density of 5 × 10^4 cells per well. Two days later, U87-MG cells were inoculated into the lower chamber at a density of 1 × 10^5 cells per well and cocultured with bEnd.3 cells for one week.
Another test taken as an example from a previous study using sodium fluorescein (NaFl) was also introduced to evaluate in vitro BBB permeability.[44] […] The absorbance of standard solutions was obtained by a multidetection monochrometer microplate reader, and subsequently, a NaFl concentration-absorbance curve was made. With the help of the curve, we measured the in vitro BBB permeability with NaFl. […] Then, a multidetection monochrometer microplate reader (485/535 nm) was used to measure the amount of NaFl in the […]. The apparent permeability coefficient (Papp) was calculated as follows: […]

With `O=C([O-])c1ccccc1-c1c2ccc(=O)cc-2oc2cc([O-])ccc12.[Na+].[Na+]` [NaFl, sodium fluorescein] the “Papp of NaFl, BBB model group” value was 11.24 ± 0.73 × 10^−6 cm/s.
